Columns and labels:
[1] = tested on: HBV; assay: Anti-HBV activity, HepG2.2.15 cell line, HBV DNA from secreted virions by realtime PCR; assay type: cell-based, Hepatitis B virus; details: HepG2.2.15 cells, 6 days of treatment
[2] = tested on: HBV; assay: Anti-HBV activity, HepG2.117 cell line (Tet-off), intracellular HBV DNA by realtime PCR; assay type: cell-based, Hepatitis B virus; details: HepG2.117 cells, 3 days of treatment
[3] = tested on: HepG2 cells; assay: Cytotoxicity in HepG2 cells, Resazurin assay; assay type: cell-based; details: incubated for 4 days, Resazurin viability
[4] = Cytotoxicity in HepG2 cells, Resazurin assay; assay type: cell-based; details: human, incubated for 4 days, Resazurin viability
[5] = Hepatitis B virus, HepG2.2.15, 144 h
[6] = Hepatitis B virus, HepG2.117, 72 h

Row | Structure (SMILES) | EC50 [1] | EC50 [2] | CC50 [3] | EC50 [1, 5] | EC50 [2, 6] | CC50 at 4 days [4]
1 | Cc1cc(NC(=O)c2cc(S(=O)(=O)NC3(C)CCOC3)sc2C)ccc1F (racemic) [Compound 16a, N-(4-fluoro-3-methyl-phenyl)-2-methyl-5-[(3-methyltetrahydrofuran-3yl)sulfamoyl]thiophene-3-carboxamide] | 75 nM | 87 nM | > 25000 nM |  |  | 
2 | Cc1cc(NC(=O)c2cc(S(=O)(=O)NC3(C)CCOC3)sc2C)ccc1F (racemic) [Compound 16b, N-(4-fluoro-3-methyl-phenyl)-2-methyl-5-[(3-methyltetrahydrofuran-3yl)sulfamoyl]thiophene-3-carboxamide] | 28 nM | 26 nM | > 25000 nM |  |  | 
3 | Cc1sc(S(=O)(=O)NC2(C)COC2)cc1C(=O)Nc1ccc(F)c(Cl)c1 [Compound 28, N-(3-Chloro-4-fluorophenyl)-2-methyl-5-[(3-methyloxetan-3-yl)-sulfamoyl]thiophene-3-carboxamide] |  |  |  | 34 nM | 41 nM | > 25000 nM
4 | Cc1sc(S(=O)(=O)NC2(C)COC2)cc1C(=O)Nc1ccc(F)c(Br)c1 [Compound 29, N-(3-Bromo-4-fluorophenyl)-2-methyl-5-[(3-methyloxetan-3-yl)-sulfamoyl]thiophene-3-carboxamide] |  |  |  | 120 nM | 120 nM | 13200 nM
5 | COC(=O)C(C)(C)NS(=O)(=O)c1cc(C(=O)Nc2ccc(F)c(F)c2)c(C)s1 [Compound 30, Methyl N-({4-[(3,4-difluorophenyl)carbamoyl]-5-methylthiophen-2-yl}sulfonyl)-2-methylalaninate] |  |  |  | > 1000 nM | 790 nM | > 25000 nM
6 | COC(=O)C(C)(C)NS(=O)(=O)c1cc(C(=O)Nc2ccc(F)c(C)c2)c(C)s1 [Compound 31, Methyl N-({4-[(4-fluoro-3-methylphenyl)carbamoyl]-5-methylthiophen-2-yl}sulfonyl)-2-methylalaninate] |  |  |  | 520 nM | 170 nM | > 25000 nM
7 | Cc1sc(S(=O)(=O)NC(C)(C)C(N)=O)cc1C(=O)Nc1ccc(F)c(F)c1 [Compound 32, 5-[(2-Amino-1,1-dimethyl-2-oxoethyl)sulfamoyl]-N-(3,4-difluorophenyl)-2-methylthiophene-3-carboxamide] |  |  |  | 220 nM | 300 nM | > 25000 nM
8 | Cc1cc(NC(=O)c2cc(S(=O)(=O)NC(C)(C)C(N)=O)sc2C)ccc1F [Compound 33, 5-[(2-Amino-1,1-dimethyl-2-oxoethyl)sulfamoyl]-N-(4-fluoro-3-methylphenyl)-2-methylthiophene-3-carboxamide] |  |  |  | 140 nM | 130 nM | > 25000 nM
9 | Cc1sc(S(=O)(=O)NC2(C(F)(F)F)CC2)cc1C(=O)Nc1ccc(F)c(F)c1 [Compound 34, N-(3,4-Difluorophenyl)-2-methyl-5-{[1-(trifluoromethyl)cyclopropyl]-sulfamoyl}thiophene-3-carboxamide] |  |  |  | 100 nM | 130 nM | 17700 nM
10 | Cc1cc(NC(=O)c2cc(S(=O)(=O)NC3(C(F)(F)F)CC3)sc2C)ccc1F [Compound 35, N-(4-Fluoro-3-methylphenyl)-2-methyl-5-{[1-(trifluoromethyl)cyclo-propyl]sulfamoyl}thiophene-3-carboxamide] |  |  |  | 60 nM | 40 nM | > 25000 nM
11 | Cc1sc(S(=O)(=O)N[C@H](C)C(F)(F)F)cc1C(=O)Nc1cc(F)c(F)c(Cl)c1 [Compound 36, N-(3-Chloro-4,5-difluorophenyl)-2-methyl-5-{[(1R)-2,2,2-trifluoro-1-methylethyl]sulfamoyl}thiophene-3-carboxamide] |  |  |  | 140 nM | 160 nM | 7100 nM
12 | Cc1sc(S(=O)(=O)N[C@@H](C)C(F)(F)F)cc1C(=O)Nc1cc(F)c(F)c(Cl)c1 [Compound 37, N-(3-Chloro-4,5-difluorophenyl)-2-methyl-5-{[(1S)-2,2,2-trifluoro-1-methylethyl]sulfamoyl}thiophene-3-carboxamide] |  |  |  | 160 nM | 220 nM | 8200 nM
13 | Cc1sc(S(=O)(=O)N[C@H](C)C(F)(F)F)cc1C(=O)Nc1ccc(F)c(Cl)c1 [Compound 38, N-(3-Chloro-4-fluorophenyl)-2-methyl-5-{[(1R)-2,2,2-trifluoro-1-methylethyl]sulfamoyl}thiophene-3-carboxamide] |  |  |  | 40 nM | 80 nM | 14400 nM
14 | Cc1cc(NC(=O)c2cc(S(=O)(=O)N[C@H](C)C(F)(F)F)sc2C)ccc1F [Compound 39, N-(4-Fluoro-3-methylphenyl)-2-methyl-5-{[(1R)-2,2,2-trifluoro-1-methylethyl]sulfamoyl}thiophene-3-carboxamide] |  |  |  | 70 nM | 60 nM | > 25000 nM
15 | Cc1sc(S(=O)(=O)NC(C)(C)C(F)(F)F)cc1C(=O)Nc1cccc(C(F)(F)F)c1 [Compound 42, 2-methyl-5-[(2,2,2-trifluoro-1,1-dimethyl-ethyl)sulfamoyl]-N-[3-(trifluoromethyl)phenyl]thiophene-3-carboxamide] |  |  |  | 530 nM | > 1000 nM | 16900 nM
16 | Cc1sc(S(=O)(=O)NC(CF)CF)cc1C(=O)Nc1ccc(F)c(C#N)c1 [Compound 43, N-(3-cyano-4-fluoro-phenyl)-5-[[2-fluoro-1-(fluoromethyl)ethyl]sulfamoyl]-2-methyl-thiophene-3-carboxamide] |  |  |  | 330 nM | 670 nM | > 25000 nM
17 | Cc1cc(NC(=O)c2cc(S(=O)(=O)NC3(C)COC3)sc2C)cc(C#N)c1F [Compound 44, N-(3-cyano-4-fluoro-5-methyl-phenyl)-2-methyl-5-[(3-methyloxetan-3-yl)sulfamoyl]thiophene-3-carboxamide] |  |  |  | 820 nM | 450 nM | > 25000 nM
18 | Cc1sc(S(=O)(=O)NC(C)(C)C(F)(F)F)cc1C(=O)Nc1ccc(F)c(C#N)c1 [Compound 45, N-(3-cyano-4-fluoro-phenyl)-2-methyl-5-[(2,2,2-trifluoro-1,1-dimethyl-ethyl)sulfamoyl]thiophene-3-carboxamide] |  |  |  | 280 nM | 420 nM | > 25000 nM
19 | Cc1sc(S(=O)(=O)N[C@@H](C)C(F)(F)F)cc1C(=O)Nc1ccc(F)c(C#N)c1 [Compound 46, N-(3-cyano-4-fluoro-phenyl)-2-methyl-5-[[(1S)-2,2,2-trifluoro-1-methyl-ethyl]sulfamoyl]thiophene-3-carboxamide] |  |  |  | 400 nM | 420 nM | > 25000 nM
20 | Cc1sc(S(=O)(=O)N[C@@H](C)C(C)(F)F)cc1C(=O)Nc1ccc(F)c(F)c1 [Compound 47, 5-[[(1S)-2,2-difluoro-1-methyl-propyl]sulfamoyl]-N-(3,4-difluorophenyl)-2-methyl-thiophene-3-carboxamide] |  |  |  | 160 nM | 340 nM | 14300 nM
21 | Cc1sc(S(=O)(=O)N[C@H](C)C(F)(F)F)cc1C(=O)Nc1ccc(F)c(Br)c1 [Compound 48, N-(3-bromo-4-fluoro-phenyl)-2-methyl-5-[[(1R)-2,2,2-trifluoro-1-methyl-ethyl]sulfamoyl]thiophene-3-carboxamide] |  |  |  | 160 nM | 280 nM | 7730 nM
22 | Cc1sc(S(=O)(=O)NC2(C(F)(F)F)CCOC2)cc1C(=O)Nc1ccc(F)c(F)c1 (stereo not drawn) [Compound 49, N-(3,4-difluorophenyl)-2-methyl-5-[[3-(trifluoromethyl)tetrahydrofuran-3-yl]sulfamoyl]thiophene-3-carboxamide] |  |  |  | 290 nM | 270 nM | > 25000 nM
23 | Cc1sc(S(=O)(=O)NC(C)(C)C(F)(F)F)cc1C(=O)Nc1ccc(F)c(F)c1 [Compound 50, N-(3,4-difluorophenyl)-2-methyl-5-[(2,2,2-trifluoro-1,1-dimethyl-ethyl)sulfamoyl]thiophene-3-carboxamide] |  |  |  | 140 nM | 190 nM | > 25000 nM
24 | Cc1sc(S(=O)(=O)N[C@H](C)C(F)(F)F)cc1C(=O)Nc1ccc(F)c(C#N)c1 [Compound 51, N-(3-cyano-4-fluoro-phenyl)-2-methyl-5-[[(1R)-2,2,2-trifluoro-1-methyl-ethyl]sulfamoyl]thiophene-3-carboxamide] |  |  |  | 250 nM | 170 nM | > 25000 nM
25 | Cc1sc(S(=O)(=O)NC(CF)CF)cc1C(=O)Nc1ccc(F)c(F)c1 [Compound 52, N-(3,4-difluorophenyl)-5-[[2-fluoro-1-(fluoromethyl)ethyl]sulfamoyl]-2-meth thiophene-3-carboxamide] |  |  |  | 170 nM | 170 nM | > 25000 nM
26 | Cc1sc(S(=O)(=O)NC2(C(F)(F)F)CC2)cc1C(=O)Nc1ccc(F)c(C#N)c1 [Compound 53, N-(3-cyano-4-fluoro-phenyl)-2-methyl-5-[[1-(trifluoromethyl)cyclo-propyl]sulfamoyl]thiophene-3-carboxamide] |  |  |  | 120 nM | 140 nM | 13700 nM
27 | Cc1sc(S(=O)(=O)N[C@H](C)C(C)(F)F)cc1C(=O)Nc1ccc(F)c(F)c1 [Compound 55, 5-[[(1R)-2,2-difluoro-1-methyl-propyl]sulfamoyl]-N-(3,4-difluorophenyl)-2-methyl-thiophene-3-carboxamide] |  |  |  | 32 nM | 90 nM | 14600 nM
28 | Cc1sc(S(=O)(=O)N[C@H](C)C(F)(F)F)cc1C(=O)Nc1ccc(F)c(F)c1 [Compound 56, N-(3,4-difluorophenyl)-2-methyl-5-[[(1R)-2,2,2-trifluoro-1-methyl-ethyl]sulfamoyl]thiophene-3-carboxamide] |  |  |  | 130 nM | 70 nM | 14900 nM
